From patent publication US12358893B2, “Metalloenzyme inhibitor compounds” (Corxel Pharmaceuticals Hong Kong Limited, priority 2019, dated 2025)

Experiments:
[1] = biological target: T1, recombinant human CYP11B2 (Homo sapiens, UniProt P19099); experiment: CYP11B2 enzyme assay with enzyme enriched microsomes, aldosterone measured by LC-MS; format: biochemical; settings: microsomes from V79-4 cells; 11-deoxycorticosterone at Km; read-out: hCYP11B2 IC50
T1 construct: made in house; host or cells: V79-4 cells (Chinese hamster lung fibroblasts); enzyme-enriched microsomal fraction of the lysate
T1 sequence (P19099 25-503): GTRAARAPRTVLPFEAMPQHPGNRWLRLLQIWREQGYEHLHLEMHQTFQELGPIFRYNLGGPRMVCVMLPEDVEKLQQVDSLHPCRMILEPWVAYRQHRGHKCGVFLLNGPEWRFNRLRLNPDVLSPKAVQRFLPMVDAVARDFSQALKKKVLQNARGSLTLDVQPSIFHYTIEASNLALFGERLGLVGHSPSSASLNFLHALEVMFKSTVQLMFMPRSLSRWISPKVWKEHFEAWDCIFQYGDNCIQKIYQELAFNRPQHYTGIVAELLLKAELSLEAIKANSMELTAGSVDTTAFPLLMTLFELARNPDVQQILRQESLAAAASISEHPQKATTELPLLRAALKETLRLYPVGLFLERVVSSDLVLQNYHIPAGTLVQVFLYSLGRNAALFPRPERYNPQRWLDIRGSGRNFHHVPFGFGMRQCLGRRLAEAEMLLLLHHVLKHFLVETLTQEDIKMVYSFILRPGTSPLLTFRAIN
Method: (§1) V79-4 cells expressing recombinant andrenodoxin and andrenodoxin reductase with either recombinant human CYP11B2 or CYP11B1 were prepared according to methods previously described (LaSala et al 2009 Anal Bioch 394:56-61). An enzyme enriched microsomal fraction was prepared from cellular lysates and subsequently used as the enzyme source for determining inhibitor IC50s. The substrate Km values were experimentally determined for 11-deoxycorticosterone (CYP11B2 substrate) and 11-deoxycortisol (CYP11B1 substrate). Enzyme assays for inhibitor screening employed CYP11B2 and CYP11B1 enzyme enriched microsomes and were run at the Km of the respective substrates. Products of the enzyme reactions, aldosterone for CYP11B2 or cortisol for CYP11B1, were measured by LC-MS. Assays were run under conditions of less than 20% substrate turnover. Inhibitor IC50s were generated by determining the product formation in the absence or presence of inhibitor at various concentrations. In the absence of the test compound, the product formed (Pt) in each data set was defined as 100% activity. In the absence of enzyme, the product formed (Pb) in each data set was defined as 0% activity. The percent activity in the presence of each inhibitor was calculated according to the following equation: % activity=(P−Pb)/(Pt−Pb), where P=the product formed in the presence of the inhibitor. The IC50 value was defined as the inhibitor concentration causing a 50% decrease in activity relative to the no inhibitor control reaction.

[2] = biological target: T2, recombinant human CYP11B1 (Homo sapiens, UniProt P15538); experiment: CYP11B1 enzyme assay with enzyme enriched microsomes, cortisol measured by LC-MS; format: biochemical; settings: microsomes from V79-4 cells; 11-deoxycortisol at Km; read-out: hCYP11B1 IC50
T2 construct: made in house; host or cells: V79-4 cells (Chinese hamster lung fibroblasts); enzyme-enriched microsomal fraction of the lysate
T2 sequence (P15538 25-503): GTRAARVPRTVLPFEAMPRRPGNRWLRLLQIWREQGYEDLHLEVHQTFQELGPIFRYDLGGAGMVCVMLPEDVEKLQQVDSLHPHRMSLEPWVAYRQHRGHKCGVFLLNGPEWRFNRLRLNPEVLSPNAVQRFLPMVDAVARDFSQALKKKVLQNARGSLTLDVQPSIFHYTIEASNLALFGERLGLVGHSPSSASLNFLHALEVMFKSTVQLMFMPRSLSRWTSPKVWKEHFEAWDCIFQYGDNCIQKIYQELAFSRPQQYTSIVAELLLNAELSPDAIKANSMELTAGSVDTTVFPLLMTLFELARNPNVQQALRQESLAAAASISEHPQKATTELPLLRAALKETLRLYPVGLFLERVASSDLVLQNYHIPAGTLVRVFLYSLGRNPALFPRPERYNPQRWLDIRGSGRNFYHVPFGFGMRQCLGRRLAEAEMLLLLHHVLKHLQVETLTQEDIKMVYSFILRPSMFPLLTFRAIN
Method: as §1

Row | IC50 [1] | IC50 [2] | Compound
1 | 1 to 100 nM | 1000 to 10000 nM | N#Cc1ccc2nc(-n3cnc4ccc(OC(F)F)cc43)n(C3CC3)c2c1 [Example 50, 1′-cyclopropyl-6-(difluoromethoxy)-1′H-[1,2′-bibenzo[d]imidazole]-6′-carbonitrile]
2 | 1 to 100 nM | 1000 to 10000 nM | N#Cc1ccc2c(c1)ncn2-c1nc2cc(F)c(F)cc2n1C1CC1 [Example 23, 1′-cyclopropyl-5′,6′-difluoro-1′H-[1,2′-bibenzo[d]imidazole]-5-carbonitrile]
3 | 1 to 100 nM | 100 to 1000 nM | N#Cc1ccc2nc(-n3cnc4cc(OC(F)F)ccc43)n(C3CC3)c2c1 [Example 49, 1′-cyclopropyl-5-(difluoromethoxy)-1′H-[1,2′-bibenzo[d]imidazole]-6′-carbonitrile]
4 | 1 to 100 nM | 1000 to 10000 nM | COc1cc2ncn(-c3nc4ccc(F)cc4n3C3CC3)c2cc1OC [Example 5, 1′-cyclopropyl-6′-fluoro-5,6-dimethoxy-1′H-1,2′-bibenzo[d]imidazole]
